As usually defined, the melting point is the temperature, or range, at which the solid turns liquid.

In turn, `CC(=O)Nc1nc(CC(=O)Nc2ncc(C(C)C)s2)cs1` [2-[2-(acetylamino)-1,3-thiazol-4-yl]-N-(5-isopropyl-1,3-thiazol-2-yl)acetamide] registered a melting point of 174 to 176 °C.

The values are drawn from patent US6784198B1, “Arylmethyl-carbonylamino-thiazole derivatives and their use as antitumor agents” (Pharmacia Italia S.p.A., priority 1999, dated 2004).
